Reference: ChEMBL document CHEMBL1142999, “Discovery of potent, selective, orally active, nonpeptide inhibitors of human mast cell chymase” (J Med Chem, 2007)
One block for each molecule: values may come before it. Calls of active or inactive are those of the source. No cut-off for these calls is given here.

What was measured:
[1] = Oral bioavailability in rat; type: ADME, organism-based; details: in vivo
[2] = organism: Homo sapiens; assay: Inhibition of human alpha-thrombin at 100 uM
[3] = organism: Homo sapiens; assay: Inhibition of human chymotrypsin at 100 uM
[4] = biological target: Trypsin (Homo sapiens, UniProt P07477+P07478+P35030); assay: Inhibition of human trypsin; type: protein assay
[5] = biological target: Coagulation factor X (Homo sapiens) (UniProt P00742); assay: Inhibition of human factor Xa at 100 uM
[6] = biological target: T1, Cathepsin G (Homo sapiens, UniProt P08311); assay: Inhibition of human neutrophil Cat G
T1 sequence (P08311 whole entry): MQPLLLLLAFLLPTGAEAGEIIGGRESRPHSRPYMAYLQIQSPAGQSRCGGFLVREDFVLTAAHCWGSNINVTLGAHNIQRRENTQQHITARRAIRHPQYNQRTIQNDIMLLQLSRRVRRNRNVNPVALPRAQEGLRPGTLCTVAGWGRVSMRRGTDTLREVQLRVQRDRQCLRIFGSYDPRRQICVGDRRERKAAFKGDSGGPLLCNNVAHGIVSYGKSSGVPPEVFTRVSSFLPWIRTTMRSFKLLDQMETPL

[7] = organism: Homo sapiens; assay: Inhibition of human beta-tryptase at 100 uM
[8] = biological target: T2, Neutrophil elastase (Homo sapiens) (UniProt P08246); assay: Inhibition of human leukocyte elastase at 100 uM
T2 sequence (whole entry): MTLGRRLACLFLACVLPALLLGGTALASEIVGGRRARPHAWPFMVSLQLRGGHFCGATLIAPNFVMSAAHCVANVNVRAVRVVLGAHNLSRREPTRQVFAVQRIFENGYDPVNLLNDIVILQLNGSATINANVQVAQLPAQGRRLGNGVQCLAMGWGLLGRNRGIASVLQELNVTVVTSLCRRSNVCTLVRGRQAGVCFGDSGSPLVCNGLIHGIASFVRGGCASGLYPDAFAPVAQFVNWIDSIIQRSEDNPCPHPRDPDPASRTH

[9] = biological target: T3, Coagulation factor VII (Homo sapiens) (UniProt P08709); assay: Inhibition of human factor VIIa at 100 uM
T3 sequence (whole entry): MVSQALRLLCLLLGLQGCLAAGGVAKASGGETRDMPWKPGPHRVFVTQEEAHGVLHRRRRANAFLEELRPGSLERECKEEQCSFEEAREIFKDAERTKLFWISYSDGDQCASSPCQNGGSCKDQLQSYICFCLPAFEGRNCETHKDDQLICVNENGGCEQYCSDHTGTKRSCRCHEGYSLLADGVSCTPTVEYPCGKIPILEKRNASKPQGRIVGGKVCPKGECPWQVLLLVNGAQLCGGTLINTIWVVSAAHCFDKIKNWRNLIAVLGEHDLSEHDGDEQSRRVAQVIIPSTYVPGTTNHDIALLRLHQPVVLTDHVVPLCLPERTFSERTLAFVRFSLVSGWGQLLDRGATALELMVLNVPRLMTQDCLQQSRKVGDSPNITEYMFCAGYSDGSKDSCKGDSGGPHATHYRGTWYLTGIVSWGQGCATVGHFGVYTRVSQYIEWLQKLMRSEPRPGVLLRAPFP

[10] = Half life in orally dosed rat; type: ADME, organism-based; details: in vivo, po
[11] = biological target: T4, Chymase (Homo sapiens) (UniProt P23946); assay: Inhibition of human skin chymase at 10 uM
T4 sequence (whole entry): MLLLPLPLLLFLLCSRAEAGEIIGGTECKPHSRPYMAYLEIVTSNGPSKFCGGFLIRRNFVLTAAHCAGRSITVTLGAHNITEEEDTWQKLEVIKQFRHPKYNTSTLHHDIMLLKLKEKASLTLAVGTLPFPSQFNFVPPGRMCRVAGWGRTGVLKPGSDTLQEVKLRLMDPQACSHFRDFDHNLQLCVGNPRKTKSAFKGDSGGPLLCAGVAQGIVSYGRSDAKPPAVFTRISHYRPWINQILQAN

[12] = tested on: Syrian golden hamster; assay: Antiinflammatory activity against carrageenan-induced paw inflammation in golden Syrian hamster at 30 mg/kg, po; type: functional; details: Mesocricetus auratus
[13] = Cmax in rat; type: ADME, organism-based; details: in vivo
[14] = biological target: T5, Cathepsin G (Homo sapiens) (UniProt P08311); assay: Inhibition of human neutrophil Cat G at 100 uM
T5 sequence (whole entry): T1 sequence (P08311 whole entry)

[15] = tested on: Syrian golden hamster; assay: Antiinflammatory activity against carrageenan-induced paw inflammation in golden Syrian hamster at 10 mg/kg, im; type: functional, organism-based; parameters: dose 10 mg/kg; details: Mesocricetus auratus

Chain of Coagulation factor X (Homo sapiens) (P00742 41-179 limits assumed): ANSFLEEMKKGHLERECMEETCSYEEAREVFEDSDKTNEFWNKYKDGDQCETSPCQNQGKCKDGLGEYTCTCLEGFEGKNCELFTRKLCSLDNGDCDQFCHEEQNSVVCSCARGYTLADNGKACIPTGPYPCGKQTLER
Chain of Coagulation factor X (Homo sapiens) (P00742 235-488 limits assumed): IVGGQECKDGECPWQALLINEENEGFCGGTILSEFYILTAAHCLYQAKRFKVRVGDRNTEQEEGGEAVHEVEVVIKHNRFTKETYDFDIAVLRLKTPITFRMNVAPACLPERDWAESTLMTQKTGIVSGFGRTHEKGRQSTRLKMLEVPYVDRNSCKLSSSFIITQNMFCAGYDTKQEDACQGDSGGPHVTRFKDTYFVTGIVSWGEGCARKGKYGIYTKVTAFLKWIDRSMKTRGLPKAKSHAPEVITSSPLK

bioavailability [1]: 3%
inhibition [2]: < 50%
inhibition [3]: < 50%
IC50 [4]: 12 µM
inhibition [5]: < 50%
Ki [6]: 9.5 µM
inhibition [7]: < 50%
inhibition [8]: < 50%
inhibition [9]: < 50%
half-life [10]: 1.8 h
Compound: O=C(Nc1ccc2ccccc2c1)C(c1csc2ccc(Cl)cc12)P(=O)(O)O (configuration not stated)

inhibition [11]: < 50%
Compound: O=C(Nc1ccc2ccccc2c1)C(n1nnc2ccccc21)P(=O)(O)O (configuration not stated)

inhibition [14]: 0%
Compound: O=C(Nc1ccc2ccccc2c1)C(c1cccc2ccccc12)P(=O)(O)O (configuration not stated)

Second part, the molecule before the results:

Compound: CP(=O)(O)C(C(=O)N/C=C/c1cc(F)cc(Cl)c1)c1csc2ccc(Cl)cc12 (configuration not stated)
inhibition in vivo at 30 mg/kg [12]: 50%
bioavailability [1]: 39%
Cmax [13]: 6 µM
half-life [10]: 4.5 h

Compound: C[C@@H]1C[C@H]2[C@@H]3CCC4=CC(=O)C=C[C@]4(C)[C@@]3(F)[C@@H](O)C[C@]2(C)[C@@]1(O)C(=O)CO
Activity [15]: Active
